Source: patent publication US12077503B2, “Substituted cyclic amides and their use as herbicides” (FMC CORPORATION, priority 2015, dated 2024)

Assays:
Type in all cases: in vivo
Kochia (Kochia scoparia) [1] = test: Test A preemergence; settings: Bassia scoparia, pre-emergence, 240 h; for pest or weed control at 125 g/ha: 125 g ai/ha, preemergence, 0 to 100 scale where 0 is no effect and 100 is complete control, read-out: Kochia plant response rating; for pest or weed control at 500 g/ha: 500 g ai/ha, Preemergence, visual injury vs untreated controls after approximately 10 d, read-out: Kochia plant response rating (0 to 100 scale where 0 is no effect and 100 is complete control)
How it was run: (§1)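 In a loam soil and sand blend, planted seeds got a preemergence directed soil spray, and young plants at the one- to two-leaf stage, 2–10 cm high, got a postemergence application; ~10 d greenhouse hold; injury rated visually, 0 = none, 100 = complete control.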

[2] = tested on: barnyardgrass (Echinochloa crus-galli); test: Test A preemergence; settings: Echinochloa crus-galli, pre-emergence, 240 h; for pest or weed control at 125 g/ha: 125 g ai/ha, preemergence, 0 to 100 scale where 0 is no effect and 100 is complete control, read-out: Barnyardgrass plant response rating; for pest or weed control at 500 g/ha: 500 g ai/ha, Preemergence, visual injury vs untreated controls after approximately 10 d, read-out: Barnyardgrass plant response rating (0 to 100 scale where 0 is no effect and 100 is complete control)
How it was run: as §1

[3] = tested on: giant foxtail (Setaria faberii); test: Test A preemergence; settings: Setaria faberi, pre-emergence, 240 h; for pest or weed control at 125 g/ha: 125 g ai/ha, preemergence, 0 to 100 scale where 0 is no effect and 100 is complete control, read-out: Foxtail, Giant plant response rating; for pest or weed control at 500 g/ha: 500 g ai/ha, Preemergence, visual injury vs untreated controls after approximately 10 d, read-out: Foxtail, Giant plant response rating (0 to 100 scale where 0 is no effect and 100 is complete control)
How it was run: as §1

[4] = tested on: pigweed (Amaranthus retroflexus); test: Test A preemergence; settings: Amaranthus retroflexus, pre-emergence, 240 h; for pest or weed control at 125 g/ha: 125 g ai/ha, preemergence, 0 to 100 scale where 0 is no effect and 100 is complete control, read-out: Pigweed plant response rating; for pest or weed control at 500 g/ha: 500 g ai/ha, Preemergence, visual injury vs untreated controls after approximately 10 d, read-out: Pigweed plant response rating (0 to 100 scale where 0 is no effect and 100 is complete control)
[5] = tested on: ragweed (common ragweed, Ambrosia elatior); test: Test A preemergence; settings: Ambrosia artemisiifolia, pre-emergence, 240 h; for pest or weed control at 125 g/ha: 125 g ai/ha, preemergence, 0 to 100 scale where 0 is no effect and 100 is complete control, read-out: Ragweed plant response rating; for pest or weed control at 500 g/ha: 500 g ai/ha, Preemergence, visual injury vs untreated controls after approximately 10 d, read-out: Ragweed plant response rating (0 to 100 scale where 0 is no effect and 100 is complete control)
How it was run: as §1

[6] = tested on: ryegrass, Italian (Italian ryegrass, Lolium multiflorum); test: Test A preemergence; settings: Lolium multiflorum, pre-emergence, 240 h; for pest or weed control at 125 g/ha: 125 g ai/ha, preemergence, 0 to 100 scale where 0 is no effect and 100 is complete control, read-out: Ryegrass, Italian plant response rating; for pest or weed control at 500 g/ha: 500 g ai/ha, Preemergence, visual injury vs untreated controls after approximately 10 d, read-out: Ryegrass, Italian plant response rating (0 to 100 scale where 0 is no effect and 100 is complete control)
How it was run: as §1

[7] = tested on: Galium (catchweed bedstraw, Galium aparine); test: Test A postemergence; settings: Galium, post-emergence, 240 h, 125 g ai/ha, postemergence, visual injury rating after approximately 10 d; read-out: Galium plant response rating (0 to 100 scale, 0 no effect, 100 complete control)
How it was run: as §1

Kochia (Kochia scoparia) [8] = test: Test A postemergence; settings: Bassia scoparia, post-emergence, 240 h, 125 g ai/ha, postemergence, visual injury rating after approximately 10 d; read-out: Kochia plant response rating (0 to 100 scale, 0 no effect, 100 complete control)
How it was run: as §1

[9] = tested on: barnyardgrass (Echinochloa crus-galli); test: Test A postemergence; settings: Echinochloa crus-galli, post-emergence, 240 h, 125 g ai/ha, postemergence, visual injury rating after approximately 10 d; read-out: Barnyardgrass plant response rating (0 to 100 scale, 0 no effect, 100 complete control)
How it was run: as §1

corn (Zea mays) = test: Test A postemergence; settings: Zea mays, post-emergence, 240 h, 125 g ai/ha, postemergence, visual injury rating after approximately 10 d; read-out: Corn plant response rating (0 to 100 scale, 0 no effect, 100 complete control)
How it was run: as §1

[10] = tested on: pigweed (Amaranthus retroflexus); test: Test A postemergence; settings: Amaranthus retroflexus, post-emergence, 240 h, 125 g ai/ha, postemergence, visual injury rating after approximately 10 d; read-out: Pigweed plant response rating (0 to 100 scale, 0 no effect, 100 complete control)
How it was run: as §1

[11] = tested on: barnyardgrass (Echinochloa crus-galli); test: Test B flooded paddy test; settings: Echinochloa crus-galli, Flood, 250 g ai/ha; scale of 0 to 100 where 0 is no effect and 100 is complete control; read-out: Barnyardgrass plant response rating
How it was run: (§2)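 2-leaf plants; pots flooded 3 cm over soil; cpd added to paddy water; depth held; greenhouse 13–15 d; visual rating vs controls, 0 = no effect, 100 = complete control.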

[12] = tested on: ducksalad (Heteranthera limosa); test: Test B flooded paddy test; settings: Heteranthera limosa, Flood, 250 g ai/ha; scale of 0 to 100 where 0 is no effect and 100 is complete control; read-out: Ducksalad plant response rating
How it was run: as §2

rice (Oryra sativa) = test: Test B flooded paddy test; settings: Oryza sativa, Flood, 250 g ai/ha; scale of 0 to 100 where 0 is no effect and 100 is complete control; read-out: Rice plant response rating
How it was run: as §2

[13] = tested on: sedge, umbrella (small-flower umbrella sedge, Cyperus difformis); test: Test B flooded paddy test; settings: Cyperus difformis, Flood, 250 g ai/ha; scale of 0 to 100 where 0 is no effect and 100 is complete control; read-out: Sedge, Umbrella plant response rating
How it was run: as §2

SMILES	pest or weed control at 125 g/ha (Kochia (Kochia scoparia) [1]) [%]	pest or weed control at 500 g/ha (Kochia (Kochia scoparia) [1]) [%]	pest or weed control at 125 g/ha [2] [%]	pest or weed control at 500 g/ha [2] [%]	pest or weed control at 125 g/ha [3] [%]	pest or weed control at 500 g/ha [3] [%]	pest or weed control at 125 g/ha [4] [%]	pest or weed control at 500 g/ha [4] [%]	pest or weed control at 125 g/ha [5] [%]	pest or weed control at 500 g/ha [5] [%]	pest or weed control at 125 g/ha [6] [%]	pest or weed control at 500 g/ha [6] [%]	pest or weed control at 125 g/ha [7] [%]	pest or weed control at 125 g/ha (Kochia (Kochia scoparia) [8]) [%]	pest or weed control at 125 g/ha [9] [%]	plant injury at 125 g/ha (corn (Zea mays)) [%]	pest or weed control at 125 g/ha [10] [%]	pest or weed control at 250 g/ha [11] [%]	pest or weed control at 250 g/ha [12] [%]	pest or weed control at 250 g/ha (rice (Oryra sativa)) [%]	further results
CN1C[C@H](c2cccc(COC(F)F)c2)[C@@H](C(=O)Nc2ccccc2F)C1=O [Compound 875]	50	80	90	90	90	90	0	0	0	50	0	30	40	40	90	20	0	70	100	0	pest or weed control at 250 g/ha [13]: 0%
CSc1ccccc1NC(=O)[C@H]1C(=O)N(C)C[C@@H]1c1cccc(COC(F)F)c1 [Compound 876]	0	70	60	90	80	100	0	30	0	80	0	30	0	50	60	0	0	0	85	0	pest or weed control at 250 g/ha [13]: 0%
CN1C[C@H](c2cc(F)c(F)c(F)c2)[C@@H](C(=O)Nc2ccccc2F)C1=O [Compound 878]	70	90	100	100	100	100	0	40	30	80	30	70	50	20	100	50	0	85	100	0	pest or weed control at 250 g/ha [13]: 0%
